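1) Cells in 96-well plates. 2) Compound, 48 h, 5 concentrations. 3) Linear interpolation between surrounding doses. 4) Unreached endpoint = highest concentration. GI50 = concentration required for 50% inhibition of growth. TGI: concentration producing complete growth inhibition.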
Legend:
Assay in all cases: NCI-60 cell line screen, 48 h
[1] = system: U251 CNS
[2] = system: SK-MEL-5 melanoma
[3] = system: SNB-19 CNS
[4] = system: A549 NSCLC
[5] = system: A498 renal
[6] = system: LXFL 529 NSCLC
[7] = system: SF-268 CNS
[8] = system: CAKI-1 renal
[9] = system: HCC-2998 colon
[10] = system: LOX IMVI melanoma
[11] = system: SNB-78 CNS
[12] = system: HOP-62 NSCLC
[13] = system: SW-620 colon
[14] = system: HCT-116 colon
[15] = system: SF-295 CNS
[16] = system: UACC-62 melanoma
[17] = system: MALME-3M melanoma
[18] = system: MOLT-4 leukemia
[19] = system: NCI-H226 lung
[20] = system: 786-0 renal
[21] = system: COLO 205 colon
[22] = system: NCI-H460 lung
[23] = system: SNB-75 CNS
[24] = system: OVCAR-8 ovarian
[25] = system: M19-MEL melanoma
[26] = system: CCRF-CEM leukemia
[27] = system: KM20L2 colon
[28] = system: IGROV1 ovarian
[29] = system: ACHN renal

What does the source list for `CCC[CH2][Sn]1([CH2]CCC)[O]CC(CN2CCCCC2)[O]1` (stereo not drawn)?
GI50 [1]: 285 nM; TGI [1]: 1110 nM; GI50 [2]: 582 nM; TGI [2]: 1910 nM; GI50 [3]: 330 nM; TGI [3]: 948 nM; GI50 [4]: 1990 nM; TGI [4]: 3810 nM; GI50 [5]: 276 nM; TGI [5]: 785 nM; GI50 [6]: 76.2 nM; TGI [6]: 263 nM; GI50 [7]: 295 nM; TGI [7]: 1340 nM; GI50 [8]: 51.2 nM; TGI [8]: 333 nM; GI50 [9]: 486 nM; TGI [9]: 1870 nM; GI50 [10]: 179 nM; TGI [10]: 485 nM; GI50 [11]: 266 nM; TGI [11]: 761 nM; GI50 [12]: 1610 nM; TGI [12]: 3050 nM; GI50 [13]: 137 nM; TGI [13]: 388 nM; GI50 [14]: 892 nM; TGI [14]: 2130 nM; GI50 [15]: 309 nM; TGI [15]: 1320 nM; GI50 [16]: 301 nM; TGI [16]: 1300 nM; GI50 [17]: 62.8 nM; TGI [17]: 616 nM; GI50 [18]: 158 nM; TGI [18]: 646 nM; GI50 [19]: 1630 nM; TGI [19]: 3120 nM; GI50 [20]: 291 nM; TGI [20]: 1010 nM; GI50 [21]: 273 nM; TGI [21]: 883 nM; GI50 [22]: 1100 nM; TGI [22]: 2290 nM; GI50 [23]: 197 nM; TGI [23]: 731 nM; GI50 [24]: 283 nM; TGI [24]: 873 nM; GI50 [25]: 477 nM; TGI [25]: 1730 nM; GI50 [26]: 117 nM; TGI [26]: 600 nM; GI50 [27]: 852 nM; TGI [27]: 2210 nM; GI50 [28]: 1120 nM; TGI [28]: 2410 nM; GI50 [29]: 269 nM; TGI [29]: 808 nM
